Measurements reported in ChEMBL document CHEMBL5131428, “Discovery of potent antiproliferative agents from selected oxygen heterocycles as EGFR tyrosine kinase inhibitors from the U.S. National Cancer Institute database by in silico screening and bioactivity evaluation” (Bioorg Med Chem Lett, 2022).

Assays:
A-431 [1] = test: Antiproliferative activity against human A-431 cells overexpressing EGFR assessed as cell growth inhibition by MTT assay; assay type: functional, cell-based
HeLa = test: Antiproliferative activity against human HeLa cells assessed as cell growth inhibition by MTT assay; assay type: functional, cell-based
A-431 [2] = test: Antiproliferative activity against human A-431 cells overexpressing EGFR assessed as cell survival at 10 uM relative to control; assay type: functional; conditions: read-out: Survival
[3] = target: T1, Epidermal growth factor receptor (Homo sapiens, UniProt P00533); test: Inhibition of EGFR tyrosine kinase (unknown origin) preincubated for 5 mins followed by substrate addition and further incubated for 10 mins in presence of ATP by fluorescence based microplate reader analysis
T1 sequence (P00533 whole entry): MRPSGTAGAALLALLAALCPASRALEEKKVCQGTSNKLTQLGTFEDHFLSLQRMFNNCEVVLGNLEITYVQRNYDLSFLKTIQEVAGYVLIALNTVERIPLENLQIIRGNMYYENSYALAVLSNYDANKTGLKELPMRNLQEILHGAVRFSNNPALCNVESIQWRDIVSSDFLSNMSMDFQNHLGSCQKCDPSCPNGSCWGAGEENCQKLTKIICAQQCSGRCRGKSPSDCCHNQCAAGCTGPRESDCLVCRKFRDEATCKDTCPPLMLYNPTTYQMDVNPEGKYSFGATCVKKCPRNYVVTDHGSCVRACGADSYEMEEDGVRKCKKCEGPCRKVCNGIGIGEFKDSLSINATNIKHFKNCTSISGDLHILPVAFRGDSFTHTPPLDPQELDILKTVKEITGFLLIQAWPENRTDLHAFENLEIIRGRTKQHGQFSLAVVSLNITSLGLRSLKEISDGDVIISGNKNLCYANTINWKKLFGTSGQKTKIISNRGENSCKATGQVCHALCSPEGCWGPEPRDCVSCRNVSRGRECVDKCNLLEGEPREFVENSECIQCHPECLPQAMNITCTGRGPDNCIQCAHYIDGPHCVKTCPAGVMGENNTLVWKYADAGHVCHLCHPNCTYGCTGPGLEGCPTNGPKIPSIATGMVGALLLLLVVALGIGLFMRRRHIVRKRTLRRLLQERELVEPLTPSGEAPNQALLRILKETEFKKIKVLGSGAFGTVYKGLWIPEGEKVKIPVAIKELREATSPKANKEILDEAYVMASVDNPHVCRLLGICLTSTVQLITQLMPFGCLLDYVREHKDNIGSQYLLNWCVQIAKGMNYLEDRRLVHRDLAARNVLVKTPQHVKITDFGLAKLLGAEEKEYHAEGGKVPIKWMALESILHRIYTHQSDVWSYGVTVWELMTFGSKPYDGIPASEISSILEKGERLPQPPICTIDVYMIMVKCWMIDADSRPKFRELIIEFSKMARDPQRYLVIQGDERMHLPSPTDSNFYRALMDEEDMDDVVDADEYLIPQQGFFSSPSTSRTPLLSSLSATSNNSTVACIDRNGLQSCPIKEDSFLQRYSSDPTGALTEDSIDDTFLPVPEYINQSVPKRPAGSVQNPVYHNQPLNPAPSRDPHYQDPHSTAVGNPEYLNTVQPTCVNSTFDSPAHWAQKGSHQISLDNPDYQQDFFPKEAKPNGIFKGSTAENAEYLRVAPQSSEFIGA

[4] = target: T1, Epidermal growth factor receptor; test: Inhibition of EGFR tyrosine kinase (unknown origin)

Row | IC50 [3] | SMILES | IC50 (A-431 [1]) | IC50 (HeLa) | viability at 10 µM (A-431 [2]) | IC50 [4]
1 | – | COc1c(O)cc2oc3cc(O)c(CC=C(C)C)c(O)c3c(=O)c2c1CC=C(C)C [MANGOSTIN] | 7.2 µM | 12 µM | < 6% | –
2 | 0.9 µM | O=c1c2cccc(O)c2oc2cccc(O)c12 | – | – | – | –
3 | – | O=c1c2ccccc2oc2cc([C@H](O)c3ccccc3)ccc12 | – | – | 57% | –
4 | – | Cc1c2cc(O)c(=O)cc-2oc2cc(O)c(O)cc12 | – | – | 57% | –
5 | – | COC1=CC(=C(c2ccc(O)c(OC)c2)c2ccc(O)c(OC)c2)C=CC1=O | – | – | 57% | –
6 | – | O=C1c2ccccc2C(=O)c2c(O)c3c(c(O)c21)CCCC3 | – | – | 57% | –
7 | – | CCc1ccc(C2=C(O)C(=O)C(c3ccc(CC)cc3)=C(O)C2=O)cc1 | 17.7 µM | 17.3 µM | 17% | 0.0302 µM
8 | – | COc1cccc2c1C(=O)C1=C(C2=O)c2c(O)cc(CO)cc2[C@@H](O)[C@@H]1O | 6.04 µM | 1.74 µM | < 6% | 0.00654 µM
9 | – | C=CC(C)(C)c1c2c(c(O)c3c(=O)c4ccc(O)c(O)c4oc13)C=CC(C)(C)O2 [MACLURAXANTHONE] | 2.84 µM | 0.95 µM | 49% | –
10 | – | COc1ccc(-c2cc(=O)cc(-c3ccc(OC)cc3)o2)cc1 | 3.81 µM | 8.12 µM | < 6% | 0.00015 µM
